Measurements: ChEMBL document CHEMBL6153043, “Anthelmintic Potential of Conjugated Long-Chain Fatty Acids Isolated from the Bioluminescent Mushroom Neonothopanus gardneri” (J Nat Prod, 2025)

How the values were obtained:
[1] = Selectivity index, ratio of CC50 for African green monkey Vero cells to EC50 for anti-schistosomal activity against female Schistosoma mansoni; assay type: toxicity, cell-based; details: read-out: Ratio CC50/EC50
[2] = Selectivity index, ratio of CC50 for African green monkey Vero cells to EC50 for anti-schistosomal activity against male Schistosoma mansoni; assay type: toxicity, cell-based; details: read-out: Ratio CC50/EC50
[3] = Toxicity against L4 stage of Caenorhabditis elegans assessed as effect on viability by measuring mobility at 25 to 200 uM incubated for 24 hrs by inverted microscopic analysis; details: dose 25-200 µM

Row | SMILES | selectivity ratio [1] | selectivity ratio [2] | Activity [3]
1 | CCCCCCCC/C=C\[C@@H](O)[C@H](O)CCCCCC(=O)O | > 6.13 | > 24.1 | Non-toxic
2 | O=C(C1CCCCC1)N1CC(=O)N2CCc3ccccc3C2C1 (stereo not given) [PRAZIQUANTEL] | > 333 | > 250 | 
